PubChem BioAssay (NCI)
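Here, GI50 denotes the concentration required for 50% inhibition of growth. Definition used: TGI = concentration required for complete inhibition of growth.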

Experiments:
Assay in all cases: growth of human tumour cells (NCI), 384-well format
NCI-H23 lung = test system: NCI-H23 lung
NCI-H322M lung = test system: NCI-H322M lung
NCI-H460 NSCLC = test system: NCI-H460 NSCLC
NCI-H522 lung = test system: NCI-H522 lung
NCI/ADR-RES ovarian = test system: NCI/ADR-RES ovarian
OVCAR-3 ovarian = test system: OVCAR-3 ovarian
OVCAR-4 ovarian = test system: OVCAR-4 ovarian
OVCAR-5 ovarian = test system: OVCAR-5 ovarian
OVCAR-8 ovarian = test system: OVCAR-8 ovarian
PC-3 prostate = test system: PC-3 prostate
RPMI-8226 leukemia = test system: RPMI-8226 leukemia
RXF 393 renal = test system: RXF 393 renal
SF-268 CNS = test system: SF-268 CNS
SF-295 CNS = test system: SF-295 CNS
SF-539 CNS = test system: SF-539 CNS
SK-MEL-2 melanoma = test system: SK-MEL-2 melanoma
SK-MEL-28 melanoma = test system: SK-MEL-28 melanoma
SK-MEL-5 melanoma = test system: SK-MEL-5 melanoma
SK-OV-3 ovarian = test system: SK-OV-3 ovarian
SN12C renal = test system: SN12C renal
SNB-19 CNS = test system: SNB-19 CNS
SNB-75 CNS = test system: SNB-75 CNS
SR leukemia = test system: SR leukemia
SW-620 colon = test system: SW-620 colon
T-47D breast = test system: T-47D breast
TK-10 renal = test system: TK-10 renal
U251 glioblastoma = test system: U251 glioblastoma
UACC-257 melanoma = test system: UACC-257 melanoma
UACC-62 melanoma = test system: UACC-62 melanoma
UO-31 renal = test system: UO-31 renal

Q: Which results are given for `CC(=O)c1ccc2c(c1)c1cc(C(C)=O)ccc1n2CCNC(C)C`?
A: TGI (NCI-H23 lung): 461 nM; GI50 (NCI-H322M lung): 234 nM; TGI (NCI-H322M lung): 543 nM; GI50 (NCI-H460 NSCLC): 164 nM; TGI (NCI-H460 NSCLC): 316 nM; GI50 (NCI-H522 lung): 152 nM; TGI (NCI-H522 lung): 307 nM; GI50 (NCI/ADR-RES ovarian): 204 nM; TGI (NCI/ADR-RES ovarian): 472 nM; GI50 (OVCAR-3 ovarian): 273 nM; TGI (OVCAR-3 ovarian): 969 nM; GI50 (OVCAR-4 ovarian): 244 nM; TGI (OVCAR-4 ovarian): 637 nM; GI50 (OVCAR-5 ovarian): 433 nM; TGI (OVCAR-5 ovarian): 14300 nM; GI50 (OVCAR-8 ovarian): 276 nM; TGI (OVCAR-8 ovarian): 1320 nM; GI50 (PC-3 prostate): 279 nM; TGI (PC-3 prostate): 782 nM; GI50 (RPMI-8226 leukemia): 164 nM; TGI (RPMI-8226 leukemia): 303 nM; GI50 (RXF 393 renal): 170 nM; TGI (RXF 393 renal): 529 nM; GI50 (SF-268 CNS): 222 nM; TGI (SF-268 CNS): 618 nM; GI50 (SF-295 CNS): 309 nM; TGI (SF-295 CNS): 1170 nM; GI50 (SF-539 CNS): 228 nM; TGI (SF-539 CNS): 669 nM; GI50 (SK-MEL-2 melanoma): 263 nM; TGI (SK-MEL-2 melanoma): 478 nM; GI50 (SK-MEL-28 melanoma): 207 nM; TGI (SK-MEL-28 melanoma): 435 nM; GI50 (SK-MEL-5 melanoma): 178 nM; TGI (SK-MEL-5 melanoma): 322 nM; GI50 (SK-OV-3 ovarian): 300 nM; TGI (SK-OV-3 ovarian): 1230 nM; GI50 (SN12C renal): 221 nM; TGI (SN12C renal): 728 nM; GI50 (SNB-19 CNS): 279 nM; TGI (SNB-19 CNS): 2650 nM; GI50 (SNB-75 CNS): 264 nM; TGI (SNB-75 CNS): 743 nM; GI50 (SR leukemia): 33.8 nM; TGI (SR leukemia): 86.6 nM; GI50 (SW-620 colon): 207 nM; TGI (SW-620 colon): 736 nM; GI50 (T-47D breast): 258 nM; TGI (T-47D breast): 619 nM; GI50 (TK-10 renal): 472 nM; TGI (TK-10 renal): 11700 nM; GI50 (U251 glioblastoma): 248 nM; TGI (U251 glioblastoma): 715 nM; GI50 (UACC-257 melanoma): 182 nM; TGI (UACC-257 melanoma): 351 nM; GI50 (UACC-62 melanoma): 170 nM; TGI (UACC-62 melanoma): 313 nM; GI50 (UO-31 renal): 168 nM; TGI (UO-31 renal): 308 nM
